The text below walks through data of patent US20180235934A1, “NORADRENERGIC DRUG TREATMENT OF OBSTRUCTIVE SLEEP APNEA” (Massachusetts Institute of Technology, priority 2015, published 2018).

Data set [1] relates to urethane-anesthetized rats. The data set can be described thus: Hypoglossal nerve activity and hLTF under spontaneous REM sleep with episodic airway occlusion. The data set is classed as in vivo, rat. On the procedure: (§1) Recurrent obstructive apneas during spontaneous breathing in urethane-anesthetized rats were simulated by applying 10 or 12 episodes of airway occlusion at one episode per min.
(§2) All values are expressed as mean±SE.
Experiments were performed on 5 adult male rats (body weight 270-550 g) under urethane anesthesia, pancuronium paralysis and artificial ventilation. Unlike other anesthetics, urethane anesthesia retains the sleep-like alternations in brain state and in breathing pattern and chemosensitivity similar to those seen in natural sleep^58-59 (including state-dependent modulations of GG and abdominal respiratory-related activities^40), while also circumventing the highly fragmented natural sleep pattern in rodents^40. As shown in FIGS. 12A-12B, during periods of REM-like sleep (as indicated by increased hippocampal activity) hypoglossal nerve discharge was markedly depressed (by 44.8±9.1%, P<0.01). […] In addition, episodic end-expiratory airway occlusion (lasting 15 seconds each, 1 episode per minute; FIG. 12A, arrows) caused marked time-dependent increases in the amplitude of hypoglossal nerve discharge during each airway occlusion episode.

For data set [2], the system named is urethane-anesthetized rats. The data set can be described thus: Hypoglossal nerve activity and hLTF under carbachol (cholinergic)-induced REM sleep-like state with episodic airway occlusion. Type of data set: in vivo, rat.
Description: The EMGs were amplified (CyberAmp 380, Axon Instruments, Union City), integrated (time constant 0.1 s, MA821 RSP Moving Averager, CWE) and sampled at 10 KHz into a Dell PC with LabView software (National Instruments, Austin, Tex.).
A REM sleep-like state in urethane-anesthetized rats was induced by microinjection of the cholinergic agonist carbachol at unilateral dorsomedial pons^1,14 and was detected by the decrease of hypoglossal/GG EMG activity and the appearance of hippocampal theta discharge. The latter was recorded by using a parallel bipolar wire electrode inserted into the hippocampal CA1 region at the following stereotaxic coordinates: 3.7 mm caudal from Bregma, 2.2 mm lateral from midline, and depth of 2.4 mm from brain surface.
as §1, §2

In data set [3] the test system is urethane-anesthetized spontaneously breathing rats. On the procedure: All experimental protocols were reviewed and approved by the responsible Committee on Animal Care in accordance with published guidelines. Experiments were performed on 45 male adult Sprague-Dawley rats (300-400 g, Charles River Laboratories, Wilmington, Mass.) under urethane anesthesia (initial dose 1.5 g/kg, i.p.; supplemental dose 1/10 of initial dose, i.p. or i.v. when necessary). The femoral vein and artery were cannulated for intravenous infusion and blood pressure monitoring, respectively. Rectal temperature was maintained at 36.5-37.5° C. with a thermostatic heating pad.
After sub-laryngeal tracheal cannulation with a Y-shaped tracheal cannula, two isolated silver wires (O.D. 0.127 mm) were implanted into the genioglossus and diaphragm for EMG recording. The wire tips were exposed for 1 mm and separated by approximately 5 mm once inserted into the muscle. In some rats, the medial branch of the hypoglossal nerve (which innervates the GG and other tongue protrusion muscles) and phrenic nerve (which innervates the diaphragm) were isolated and severed. After the rat was mounted onto the stereotaxic frame, the central end of the nerve was exposed from the back of the neck (dorsal approach) and mounted onto parallel bipolar wire electrodes for recording. These rats were artificially ventilated with oxygen-enriched (40% O2) medical air and paralyzed with pancuronium bromide.
The EMGs were amplified (CyberAmp 380, Axon Instruments, Union City), integrated (time constant 0.1 s, MA821 RSP Moving Averager, CWE) and sampled at 10 KHz into a Dell PC with LabView software (National Instruments, Austin, Tex.). The recordings were stabilized for at least 1 hour before any data collection and experimental manipulations were performed.
For brain microinjections, an occipital craniostomy was performed to expose the brain surface. A glass micropipette (tip O.D. 10-20 μm) filled with chemical solution was inserted to the target structure according to its stereotaxic coordinates. Injections (25-50 nl per injection) were performed by applying pressure pulses to the micropipette and confirmed by the movement of the intrapipette solution meniscus. All chemicals were purchased from Sigma-Aldrich (Sigma, St. Louis, Mo.) and dissolved in ACSF at concentration of 10 mM. Stereotaxic coordinates of the A7 region: 2.3-2.6 mm from midline, 0-0.5 mm rostral from interaural level, 8.0-8.5 mm from lambda surface; A5 region: 0-0.5 mm caudal from interaural level, 2.2-2.7 mm from midline, 9.5-10 mm from lambda surface; dorsomedial pons: 1-1.5 mm from midline, 0.2-0.7 mm rostral from interaural level, 7.5-8.5 mm from lambda surface.
Recurrent obstructive apneas during spontaneous breathing in urethane-anesthetized rats were simulated by applying 10 or 12 episodes of airway occlusion at one episode per min. Each episode of airway occlusion started from the end of an expiration (in spontaneous breathing rats as described in Tadjalli et al., J Neurosci 30, 16886-16895 (2010)^5) or lung deflation (in ventilated rats) and lasted 10-12 sec. […]
The amplitudes of the integrated genioglossus EMG (or hypoglossal nerve discharge) and integrated diaphragm EMG (or phrenic nerve discharge) recordings in each respiratory cycle were measured and normalized to the control baseline values. All values are expressed as mean±SE. […]

In the next data set the test system is healthy subjects. As to conditions: cited from earlier work.
Data set [4] deals with TH-cre transgenic Sprague-Dawley rats. Put plainly: Episodic optogenetic stimulation of A7 neurons, HM activity and hLTF. Conditions: 0.5 mg/kg i.v.
Data set [5] concerns urethane-anesthetized rats. Put plainly: Hypoglossal amplitude and obstructive apnea-induced hLTF after yohimbine, focal at bilateral A7 and A5 regions or intravenous (no REM induction). The data set is classed as in vivo, rat. The source says: Recurrent obstructive apneas during spontaneous breathing in urethane-anesthetized rats were simulated by applying 10 or 12 episodes of airway occlusion at one episode per min. […] All values are expressed as mean±SE.

The conditions of data set [6]: clinically recommended dose range; cited from earlier work.
The mark [7] stands for this setting: injection at bilateral A7 region.
The mark [8] stands for this setting: intravenous 0.5 mg/kg, n=5, vs control n=12.

Each structure is given as a SMILES string.

For `CC1c2ccccc2CN1CC1=NCCN1` (stereo not shown) [BRL44408, 2-[2H-(1-Methyl-1,3-dihydroisoindole)methyl]-4,5-dihydroimidazole], the “hypoglossal discharge (baseline) during spontaneous REM-like sleep” value in data set [1] (0.2 mg/kg i.v., 5 rats) is on record as “effectively restored the hypoglossal discharge to normal baseline level”. Also, the “hypoglossal activity before, during or after episodic airway occlusion” value in data set [1] (0.2 mg/kg i.v., throughout spontaneous REM sleep) is given as “at or above normal baseline level”.

As for `C[N+](C)(C)CCOC(N)=O` [carbachol], the “respiratory-related hypoglossal activity, decrease on transition to REM-like sleep” value in data set [2] (focal carbachol injection at pontine dorsomedial reticular formation, vagi-intact rats) is about 39%.

For the compound `Clc1cccc(Cl)c1N=C1NCCN1` [clonidine], in data set [3] (application at bilateral A7 or A5 region), the “tonic component of GG activity recruited during airway obstruction” value is reported as “strongly suppressed”. Besides, the baseline genioglossus activity entry in data set [3] (injection at bilateral A5 region, n=6) is recorded as “not significantly reduced”. Also, in data set [3] (setting [7]), the “facilitation of hypoglossal activity during airway occlusion” value is given as “markedly attenuated” and the hypoglossal long-term facilitation result is recorded as “totally abolished”. Also, the “integrated genioglossus EMG amplitude, reduction from pre-injection baseline” value in data set [3] (injection at bilateral A7 region (~50 nl at 5 mM per site)) is about 12%.

Consider `CNCCCN1c2ccccc2CCc2ccccc21` [desipramine], for which, in the data set with healthy subjects (healthy subjects, non-REM sleep), the “tonic component of GG activity” value is “increased the tonic component of GG activity”. Also, the “inspiratory-phasic component of GG activity” value in the data set with healthy subjects (healthy subjects) was “failed to increase the inspiratory-phasic component of GG activity”. The “effect on REM sleep” value with healthy subjects (in vivo) was “inhibit REM sleep”.

Regarding `COc1cc2nc(N3CCN(C(=O)c4ccco4)CC3)nc(N)c2cc1OC` [prazosin], in data set [4], the HM activity entry is “decreased” and the “hLTF after episodic optogenetic stimulation of A7 neurons” value is listed as “no longer resulted in hLTF”.

Regarding `COC(=O)[C@@H]1[C@H]2C[C@H]3c4[nH]c5ccccc5c4CCN3C[C@@H]2CC[C@@H]1O` [yohimbine, Yohimbine], in data set [1] (i.v., rats, REM sleep), the “dose that effectively rescued first- and second-line motor defenses against OSA under REM sleep” value is over 0.25 mg/kg. Besides, the “baseline HM activity” value in data set [5] (focal injection at bilateral A7 and A5 regions (50 nl at 2.5 mM per site), n=5, P<0.01) is on record as “significant increase of baseline HM activity”. In data set [5] (focal injection at bilateral A7 and A5 regions, P<0.05), the “hLTF during obstructive apnea episodes and up to 20 min afterwards” value is “enhancement of hLTF”. In data set [5] (setting [8]), the “baseline hypoglossal amplitude before episodic airway occlusion” value was “augmented baseline hypoglossal amplitude”; the “hypoglossal amplitude during first and last airway occlusion episodes and 5 and 20 min after” value is given as “facilitated hypoglossal amplitude”. For the same compound, in data set [6], the “effect on REM sleep” value was “does not disrupt REM sleep” and the weight gain result is listed as “does not disrupt REM sleep or cause weight gain”. Also, in data set [2] (systemic yohimbine 0.5-1.0 mg/kg i.v., cholinergic-induced REM sleep, n=7, P<0.01), the “baseline HM activity” value is given as “rise of baseline HM activity above the control level”. The “obstructive apnea-induced hLTF” value in data set [2] (systemic yohimbine 0.5-1.0 mg/kg i.v., cholinergic-induced REM sleep, up to 20 min after episodic obstructive apnea) was “potently reversed the blunting of obstructive apnea-induced hLTF”.
